This series in a line: Inhibition of MDR1 (unknown origin) transfected in human SKOV3 cells assessed as growth inhibition after 48 hrs by SRB assay. (Sulforhodamine B stains cellular protein and so reports cell mass.)

In BindingDB's records for doi:10.1016/j.bmc.2012.12.010 (Duquesne University, 2013) one finds IC50 data, which are given here for two molecules.

Broadly, the IC50 is the concentration at which inhibition is half-maximal. As for `CCN(c1ccc(OC)cc1)c1nc(N)nc2[nH]c3ccccc3c12`, the IC50 was 72 nM.
Turning to `CCOc1ccc(N(C)c2nc(N)nc3[nH]c4ccccc4c23)cc1`, the IC50 is 29 nM.
